Source: the supplement of paper PMC10331698
± gives the standard deviation of the averaged measurements.

Assays:
Test in all cases: level (log10 ratio to DMSO vehicle control); higher = higher biomarker level / cell amount than vehicle control
[1] = compound: O=C(O)CCC(F)(C(F)(F)F)C(F)(F)F [4,4-bis(Trifluoromethyl)-4-fluoropropanoic acid] (in DMSO)
Experimental: (§1)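 BioMAP Diversity Plus panel of 12 human primary cell co-culture systems (3C, 4H, LPS, SAg, BT, BF4T, BE3C, CASM3C, HDF3CGF, KF3CT, MyoF, Mphg). Compounds were added 1 h before stimulation and left for 24 h (MyoF 48 h; BT 72 h for soluble read-outs or 6 d for IgG). Biomarkers were read by ELISA, cytotoxicity by SRB, PBMC viability and proliferation by Alamar Blue. Each well value was divided by the mean of 8 DMSO control wells on the same plate and log10 transformed; duplicate blinded samples were tested at 4 concentrations.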

Perfluorononanoic acid = compound: O=C(O)C(F)(F)C(F)(F)C(F)(F)C(F)(F)C(F)(F)C(F)(F)C(F)(F)C(F)(F)F [Perfluorononanoic acid] (in DMSO)
Experimental: as §1

[2] = compound: O=C(O)C(F)(OC(F)(F)C(F)(OC(F)(F)C(F)(OC(F)(F)C(F)(F)C(F)(F)F)C(F)(F)F)C(F)(F)F)C(F)(F)F [Perfluoro-(2,5,8-trimethyl-3,6,9-trioxadodecanoic)acid] (in DMSO)
Experimental: as §1

[3] = compound: O=C(O)C(F)(F)OC(F)(F)C(F)(F)OC(F)(F)C(F)(F)OC(F)(F)C(F)(F)C(F)(F)C(F)(F)F [Perfluoro-3,6,9-trioxatridecanoic acid] (in DMSO); settings: 6700 nM
Experimental: as §1

[4] = compound: OCC(F)(F)OC(F)(F)C(F)(F)OC(F)(F)C(F)(F)OC(F)(F)CO [1H,1H,11H,11H-Perfluorotetraethylene glycol] (in DMSO)
Experimental: as §1

[5] = compound: OCC(F)(F)C(F)(F)C(F)(F)C(F)F [1H,1H,5H-Perfluoropentanol] (in DMSO)
Experimental: as §1

[6] = compound: O=C(O)C(F)(OC(F)(F)C(F)(F)C(F)(F)F)C(F)(F)F [Ammonium perfluoro-2-methyl-3-oxahexanoate] (in Water)
Experimental: as §1

[7] = compound: C=C(C)C(=O)OCCC(F)(F)C(F)(F)C(F)(F)C(F)(F)C(F)(F)C(F)(F)C(F)(F)C(F)(F)F [8:2 Fluorotelomer methacrylate] (in DMSO)
Experimental: as §1

Test System | level (log10) ([1]; 6700 nM) | level (log10) ([1]; 20000 nM) | level (log10) ([1]; 60000 nM) | level (log10) (Perfluorononanoic acid; 6700 nM) | level (log10) (Perfluorononanoic acid; 20000 nM) | level (log10) ([2]; 1100 nM) | level (log10) ([2]; 3300 nM) | level (log10) ([2]; 10000 nM) | level (log10) [3] | level (log10) ([4]; 6700 nM) | level (log10) ([4]; 20000 nM) | level (log10) ([4]; 60000 nM) | level (log10) ([5]; 6700 nM) | level (log10) ([5]; 20000 nM) | level (log10) ([5]; 60000 nM) | level (log10) ([6]; 6700 nM) | level (log10) ([6]; 20000 nM) | level (log10) ([6]; 60000 nM) | level (log10) ([7]; 6700 nM) | level (log10) ([7]; 20000 nM)
3C:CCL2/MCP-1 | 0.0005 ± 0.0092 | 0.0035 ± 0.012 | 0.0015 ± 0.0021 | -0.014 ± 0.038 | -0.0045 ± 0.016 | -0.0075 ± 0.0035 | -0.0195 ± 0.00071 | 0.001 ± 0.034 | 0.0155 ± 0.021 | -0.001 ± 0.018 | -0.005 ± 0.027 | -0.015 ± 0.0057 | -0.0055 ± 0.015 | 0.03 ± 0.024 | 0.042 ± 0.045 | -0.003 ± 0.0085 | -0.004 ± 0.016 | 0.056 ± 0.05 | 0.0115 ± 0.012 | 0.009 ± 0.0014
HDF3CGF:CD54/ICAM-1 | 0.006 ± 0.0099 | -0.009 ± 0.041 | -0.0025 ± 0.005 | -0.031 ± 0.0099 | -0.033 ± 0.011 | -0.001 ± 0.0057 | -0.0015 ± 0.012 | 0.011 ± 0.031 | -0.076 ± 0.016 | 0.0025 ± 0.018 | -0.019 ± 0.04 | -0.106 ± 0.091 | 0 | -0.01 ± 0.0014 | 0.009 ± 0.023 | -0.0075 ± 0.015 | -0.0245 ± 0.005 | -0.0555 ± 0.012 | 0.0035 ± 0.021 | 0.0055 ± 0.013
KF3CT:CXCL10/IP-10 | -0.0055 ± 0.0021 | -0.0005 ± 0.00071 | -0.0005 ± 0.0064 | -0.016 ± 0.018 | -0.0085 ± 0.021 | -0.0005 ± 0.0021 | 0.0035 ± 0.0078 | 0.0025 ± 0.011 | -0.282 ± 0.12 | -0.0035 ± 0.018 | -0.0065 ± 0.0064 | -0.027 ± 0.016 | -0.0125 ± 0.033 | 0.0025 ± 0.00071 | 0.0365 ± 0.00071 | -0.017 ± 0.0085 | 0.004 ± 0.0057 | 0.005 ± 0.0042 | -0.0125 ± 0.0035 | -0.011 ± 0.0028
KF3CT:IL-1alpha | -0.008 ± 0.021 | -0.0105 ± 0.0064 | -0.0345 ± 0.043 | -0.0365 ± 0.053 | -0.105 ± 0.043 | -0.0015 ± 0.005 | -0.0195 ± 0.012 | 0.006 ± 0.0028 | -0.041 ± 0.03 | 0.009 ± 0.018 | 0.003 ± 0.037 | 0.029 ± 0.034 | -0.0465 ± 0.05 | -0.0475 ± 0.056 | 0.0535 ± 0.025 | -0.001 ± 0.0071 | 0.011 ± 0.0014 | -0.0355 ± 0.044 | -0.0145 ± 0.036 | -0.028 ± 0.031
HDF3CGF:CXCL8/IL-8 | -0.0105 ± 0.013 | -0.0005 ± 0.0092 | 0.0065 ± 0.03 | -0.0065 ± 0.0064 | -0.001 ± 0.0099 | 0.0005 ± 0.00071 | 0 ± 0.0071 | 0.004 ± 0.0014 | 0.003 ± 0.0042 | 0.0015 ± 0.028 | -0.0025 ± 0.011 | 0.0115 ± 0.0064 | -0.0045 ± 0.0064 | -0.002 ± 0.0014 | 0.0095 ± 0.032 | -0.0135 ± 0.015 | 0.001 ± 0.011 | 0.0045 ± 0.0035 | -0.0045 ± 0.0035 | -0.0025 ± 0.023
HDF3CGF:PAI-I | 0.0145 ± 0.011 | -0.0095 ± 0.00071 | -0.014 ± 0.024 | 0.037 ± 0.062 | 0.0765 ± 0.064 | 0.049 ± 0.078 | 0.056 ± 0.076 | 0.062 ± 0.047 | -0.212 ± 0.0099 | -0.0265 ± 0.033 | -0.0285 ± 0.013 | -0.036 ± 0.027 | -0.111 ± 0.12 | -0.047 ± 0.16 | -0.0365 ± 0.096 | -0.0825 ± 0.052 | -0.0995 ± 0.013 | -0.051 ± 0.054 | -0.0305 ± 0.052 | -0.0635 ± 0.022
HDF3CGF:TIMP-1 | -0.022 ± 0.041 | -0.021 ± 0.044 | -0.036 ± 0.092 | -0.0225 ± 0.026 | -0.039 ± 0.03 | -0.0095 ± 0.04 | 0.003 ± 0.03 | 0.0065 ± 0.011 | -0.109 ± 0.088 | -0.023 ± 0.089 | 0.0015 ± 0.11 | -0.073 ± 0.092 | -0.012 ± 0.031 | -0.0155 ± 0.025 | 0.006 ± 0.027 | 0.025 ± 0.0028 | 0.014 ± 0.024 | -0.0135 ± 0.0064 | -0.0115 ± 0.036 | -0.0375 ± 0.074
lMphg:CD69 | 0.015 ± 0.0071 | 0 ± 0.027 | -0.021 ± 0.0042 | -0.0165 ± 0.069 | 0.0125 ± 0.032 | -0.02 ± 0.0099 | -0.017 ± 0.0042 | -0.008 ± 0.0014 | -0.056 ± 0.083 | -0.0285 ± 0.023 | -0.0155 ± 0.016 | 0.0065 ± 0.06 | -0.039 ± 0.031 | 0.0325 ± 0.019 | 0.034 ± 0.028 | -0.0435 ± 0.011 | 0 ± 0.013 | -0.0185 ± 0.015 | -0.041 ± 0.037 | -0.041
KF3CT:TIMP-2 | -0.0315 ± 0.039 | -0.0015 ± 0.052 | -0.0125 ± 0.0035 | -0.074 ± 0.027 | -0.002 ± 0.045 | -0.0075 ± 0.013 | -0.0105 ± 0.011 | -0.001 ± 0.017 | -0.172 ± 0.037 | -0.008 ± 0.017 | 0.023 ± 0.0085 | 0.0295 ± 0.0092 | -0.018 ± 0.013 | 0.025 ± 0.045 | 0.0285 ± 0.029 | -0.0005 ± 0.037 | -0.002 ± 0.025 | 0.022 ± 0.027 | -0.018 ± 0.014 | -0.0335 ± 0.033
lMphg:IL-1alpha | 0.0125 ± 0.07 | 0.022 ± 0.011 | 0.0125 ± 0.026 | -0.017 ± 0.017 | 0.0495 ± 0.0035 | -0.0225 ± 0.021 | -0.026 ± 0.016 | 0.0045 ± 0.0078 | 0.013 ± 0.025 | 0.012 ± 0.0057 | 0.0065 ± 0.04 | 0.0605 ± 0.053 | -0.055 ± 0.017 | -0.0185 ± 0.005 | 0.011 ± 0.044 | 0.0825 ± 0.059 | 0.079 ± 0.055 | 0.11 ± 0.021 | -0.007 ± 0.028 | 0.0165 ± 0.073
HDF3CGF:M-CSF | -0.0205 ± 0.081 | -0.0565 ± 0.13 | -0.0735 ± 0.15 | 0.0115 ± 0.025 | -0.028 ± 0.028 | 0.0165 ± 0.0064 | 0.0005 ± 0.033 | -0.03 ± 0.092 | -0.158 ± 0.016 | -0.036 ± 0.083 | -0.121 ± 0.098 | -0.261 ± 0.046 | -0.0405 ± 0.067 | -0.034 ± 0.071 | -0.0205 ± 0.053 | -0.0345 ± 0.00071 | -0.0245 ± 0.013 | -0.0595 ± 0.035 | -0.0295 ± 0.019 | -0.093 ± 0.013
CASM3C:IL-6 | -0.02 ± 0.0014 | -0.0225 ± 0.005 | 0.009 ± 0.061 | -0.016 ± 0.035 | -0.016 ± 0.024 | -0.016 ± 0.048 | -0.0155 ± 0.043 | -0.0125 ± 0.018 | -0.0055 ± 0.061 | -0.0195 ± 0.021 | -0.0305 ± 0.026 | -0.013 ± 0.035 | 0.001 ± 0.041 | -0.0005 ± 0.021 | 0.0255 ± 0.036 | 0.0075 ± 0.005 | -0.052 ± 0.042 | -0.0375 ± 0.047 | -0.0315 ± 0.022 | 0.0105 ± 0.084
